# Measured values reported in patent US20240285586A1, “METHODS FOR TREATING BACTERIAL CELL POPULATIONS” (THE HONG KONG POLYTECHNIC UNIVERSITY, priority 2021, published 2024).
# Values joined by “and” are separate entries in the source; they are usually repeats but may differ in a detail not shown here. Identical values can stand only once. Residues, ends and D or L forms follow the SMILES beside them. *: point of attachment. βNA = c1ccc2cc(N*)ccc2c1
# Columns and labels:
# [1] = system: E. coli BW25113 wild type; assay: Antibiotic accumulation assay (BOCILLIN, flow cytometry), wild type; assay type: cell-based, Escherichia coli; settings: 24 hrs starvation, BOCILLIN 10 μg/mL
# Protocol: (§1) Antibiotic accumulation assay. The overnight bacteria culture was diluted 100-fold in LB broth and cultivated for about 1 hr until the OD600 value reached 0.2 (exponential phase). Aliquots of this exponential phase culture were washed and re-suspended in saline, cultured at 37° C. under constant shaking (250 rpm) for 24 hrs, followed by addition of CCCP (1 μM). After 5 mins, BOCILLIN™ FL Penicillin (10 μg/mL) was added and incubated at 37° C. with shaking at 250 rpm for 1 hr. Upon washing twice with PBS, fluorescence signal was measured by flow cytometry CytoFLEX (Beckman). Microorganisms were identified by FSC (forward scatter) and SSC (side scatter) parameters. Fluorescence intensity was measured at 488-nm excitation, 525-nm emission.
# [2] = system: E. coli ΔpspA; assay: Antibiotic accumulation assay (BOCILLIN, flow cytometry), ΔpspA; assay type: cell-based, Escherichia coli; settings: 24 hrs starvation, no CCCP
# Protocol: as §1
# [3] = system: E. coli BW25113; assay: Starvation-induced tolerance assay, wild type E. coli; assay type: cell-based, Escherichia coli; settings: for size of the E. coli population: within 24 hrs
# Protocol: (§2) Tolerance assay. […] Standard serial dilution and plating on LB agar was performed before and after ampicillin treatment for 4 hrs, 2 days, 4 days and 6 days to determine the fraction of the test population that survived at different time points during the course of treatment.
# (§3) Standard serial dilution and plating on LB agar was performed on samples collected every 24 hrs to assess changes in the size of the sub-population that survived during the treatment process.
# (§4) Upon reaching the exponential phase, bacteria were washed and re-suspended in saline (0.9% NaCl), and then incubated at 37° C. under constant shaking (250 rpm/min) for 24 hrs. […] Standard serial dilution and plating on LB agar were performed before and after ampicillin treatment for 4 hrs, 1 day, 2 days and 4 days to determine the fraction of the test population that survived at different time points during the course of treatment.
# [4] = system: K. pneumoniae; assay: Starvation-induced tolerance assay, K. pneumoniae; assay type: cell-based, Klebsiella pneumoniae
# Protocol: as §2, §3, §4
# [5] = system: A. baumannii; assay: Starvation-induced tolerance assay, A. baumannii; assay type: cell-based, Acinetobacter baumannii
# Protocol: as §2, §3, §4
# [6] = system: S. aureus; assay: Starvation-induced tolerance assay, S. aureus; assay type: cell-based, Staphylococcus aureus
# Protocol: as §2, §3, §4
# [7] = system: S. typhimurium; assay: Starvation-induced tolerance assay, S. typhimurium; assay type: cell-based
# Protocol: as §2, §3, §4
# [8] = system: Gram negative strains; assay: Minimal inhibitory concentration, Gram negative strains; assay type: cell-based; settings: all Gram negative test strains
# Description: Determination of Minimal Inhibitory Concentrations (MICs).
# [9] = system: E. coli wild type strain; assay: Assessment of efflux activity (Nile Red); assay type: cell-based, Escherichia coli; settings: CCCP 100 μM, within 30 mins, increased from ~6500 RFU
# Protocol: Assessment of efflux activity. A10-mL portion of bacterial population which had been subjected to 24 hrs starvation was centrifuged at 6000×g for 5 mins at room temperature. The pellet was re-suspended in PBS containing 1 mM MgCl2(PPB) and adjusted to OD600 0.2. Nile Red which fluoresces only weakly in aqueous solutions but becomes strongly fluorescent in nonpolar environments was added to produce a final concentration of 5 μM followed by incubation at 37° C. for 30 mins, with 250 rpm shaking. CCCP was then added to produce a final concentration of 100 μM; fluorescence was measured for a period of 30 mins by a Clariostar Microplate Reader at an excitation wavelength of 544±10 nm and an emission wavelength of 650±10 nm.
# [10] = general statement; cited from earlier work
# [11] = system: Escherichia coli BW25113; assay: Effect of PAβN on bacterial growth rate; assay type: cell-based; settings: PAβN 100 μM in LB broth
# Protocol: Assessment of effect of PAβN on bacterial growth rate. The overnight culture of the Escherichia coli BW25113 strain was diluted 1:100 in LB Broth, followed by addition of 100 μM PAβN; a sample in which only saline was added was included as negative control. OD600 value was tested at different time points.
# [12] = system: E. coli BW25113 ΔpspA; assay type: cell-based, Escherichia coli
# Protocol: as §2, §3
# [13] = system: E. coli BW25113::ΔnuoI; assay: Starvation-induced tolerance assay, ΔnuoI knockout; assay type: cell-based, Escherichia coli; settings: 24 hrs starvation, then six days of ampicillin treatment
# Protocol: as §2
# [14] = system: E. coli BW25113::ΔndhΔnuoI; assay: Starvation-induced tolerance assay, ΔndhΔnuoI double knockout; assay type: cell-based, Escherichia coli; settings: ampicillin for six days
# Protocol: as §2
# [15] = system: E. coli ΔtolC mutant; assay: Starvation-induced tolerance assay, ΔtolC knockout; assay type: cell-based, Escherichia coli; settings: ampicillin for six days
# Protocol: as §2
# [16] = system: E. coli tolerant cells; assay: Scanning electron microscopy of tolerant cells; assay type: cell-based, Escherichia coli; settings: ampicillin 100 μg/ml and 1000 μg/ml, 24 hours
# Protocol: Electron microscopy analysis. E. coli which had been subjected to starvation for 24 hours were treated with econazole alone, ampicillin alone and a combination of econazole and ampicillin for 24 hours, followed by examination under scanning electron microscopy (SEM). Cells treated with saline were included as negative control. Briefly, bacterial cells were fixed in 0.4% polyoxymethylene overnight and then in Osmium tetroxide (OsO4) for 2 hrs, followed by washing for three times with PBS. The cells were then dehydrated using pure ethanol, and infiltrated and embedded in Spurr resin for examination by SEM.
# [17] = system: S. typhimurium PY1; assay: Mouse peritonitis infection (tolerance sepsis) model; assay type: in vivo
# Protocol: NIH male mice of about six-weeks-old with body weight of ˜20 g were used, 6 mice per group. The animals were allowed to acclimate to the housing facility for 5 days. The mice were made neutropenic by administering 150 mg/kg cyclophosphamide 3 days and 1 day before infection. Different amounts of S. typhimurium strain PY01 (2.8×10^5 CFU, 7.6×10^5 CFU or 1.5×10^6 CFU) were inoculated into the animals via intraperitoneal injection. The mice were subjected to ceftazidime (20 mg/kg), econazole (20 mg/kg) or ceftazidime combining econazole treatment (i.p.) 24 h after inoculation, at 12 hrs intervals for 72 hrs randomly. The mortality rate of the test mice was recorded every 12 hrs. After 72 h of treatment, live mice were euthanized and subjected to peritoneal washes which involved injection of 2 mL of saline into the intraperitoneal space, followed by abdominal massage. The abdomen was then cut open and 200 μL of peritoneal fluid were collected and serially diluted in saline. A 100 μL portion of each dilution was spread on LB plates, followed by incubation overnight at 37° C. Colonies were counted to determine the bacterial load in the test samples, which were expressed as CFU/ml. Statistical analysis and ethic approval were the same as described above.
# [18] = system: E. coli J53 (mcr-1); assay: MIC of colistin in presence and absence of compound, broth dilution; assay type: cell-based, Escherichia coli; settings: antibiotic resistant E. coli (FIG. 20)
# [19] = system: E. coli; assay: Membrane potential assay DiSC3(5), E. coli; assay type: cell-based, Escherichia coli; settings: valinomycin 1 μM, positive control, exponential phase
# Protocol: Membrane potential assay. The transmembrane electrical potential was measured by using a membrane potential-sensitive probe, DiSC3(5). Bacterial population in either the exponential phase (OD600 of 0.2) or under 24 hrs starvation (resuspended in saline) were collected by centrifugation (6000×g, 2 mins), washed twice and re-suspended in PBS (pH 7.4), and then adjusted to OD600 of 0.2. KCl and DiSC3(5) were added until final concentration of 100 mM and 1 μM was respectively reached, followed by incubation at room temperature for 25 mins in the dark to allow the dye to penetrate through the outer membrane and produce a quenching effect. […] The fluorescence reading was monitored by using a Clariostar Microplate Reader (BMG LABTECH) at an excitation wavelength of 622±10 nm and an emission wavelength of 670±10 nm for 10 mins. Upon depolarization, the dye was rapidly released into the medium, resulting in dequenching and facilitating detection fluorometrically. […] The sample preparation method is same as that prior to testing with the Microplate Reader except for the last step. Briefly, cells were washed with PBS three times before confocal observation to remove extracellular DiSC3(5) dye. […] DiSC3(5) was excited by 638 nm laser and fluorescence was detected by HyD detector at emission wavelength 675±25 nm. The images were acquired and analyzed by the Leica Application Suite X (LAS X) software. […]
# [20] = system: E. coli BW25113 and its ΔpspA derivative; assay: Membrane permeability assay (SYTOX Green); assay type: cell-based, Escherichia coli; settings: colistin, positive control; similar in wild type and ΔpspA
# Protocol: Membrane permeability assay. The membrane permeability or integrity of the test organisms was measured using SYTOX Green (ThermoFisher), which can enter the cell through damaged cell membrane and bind to nucleic acid, generating fluorescence signal. E. coli BW25113 and its ΔpspA derivative at a concentration of OD600 of 0.2, which had been subjected to 24 hrs starvation, were collected by centrifugation (6000×g, 2 mins), washed twice and re-suspended in saline. SYTOX Green was then added to give a final concentration of 1 μM, followed by incubation for 30 min in the dark at room temperature. The relative fluorescence signal in the wild type and ΔpspA strain was measured by a Cary Eclipse Fluorescence Spectrophotometer (Agilent), with an excitation wavelength of 488±10 nm and an emission wavelength of 523±10 nm.
# [21] = CCCP 100 μM, absence of ampicillin
# [22] = low concentration of CCCP + 10×MIC ampicillin
compound,measurement,setting,value
Cc1cc(C)n2c1C=C1C=CC(CCC(=O)Nc3ccc(OCC(=O)N[C@@H]4C(=O)N5[C@@H]4SC(C)(C)[C@@H]5C(=O)[O-])cc3)=[N+]1[B-]2(F)F.[Na+] [BOCILLIN],cells exhibiting high BOCILLIN intensity (>10^3 RFU),[1]; absence of CCCP,10.45%
same,cells that exhibited high BOCILLIN level,[2],18.52%
"N#CC(C#N)=NNc1cccc(Cl)c1 [CCCP, carbonyl cyanide-m-chlorophenylhydrazone]",population size,"[3]; CCCP 1 μM + ampicillin, […], after 24 hrs starvation",~80 cells/mL
same,tolerance to ciprofloxacin,[3]; CCCP 1 μM + ciprofloxacin 0.5 μg/mL,not affected
same,phenotypic tolerance to gentamicin upon PMF dissipation,[3]; CCCP 1 μM + gentamicin 10 μg/mL,cannot be maintained
same,size of the surviving population,"[3]; CCCP 1 μM alone, […], after 24 hrs starvation",remained unchanged
same,size of the E. coli population,[3]; CCCP 100 μM + ampicillin,~2×10^4 cells/mL
same,size of the E. coli population,"[3]; CCCP 100 μM alone, from ~2.5×10^7 cells/mL",~5×10^5 cells/mL
same,time to eradication of the entire antibiotic tolerant population,[3]; CCCP 100 μM with ampicillin,≤ 48 h
same,time to eradication of the entire antibiotic tolerant population,[3]; CCCP 100 μM without ampicillin,≤ 48 h
same,killing effect compared with CCCP alone,[3]; CCCP (100 μM) + ampicillin,significantly stronger
same,entire tolerant cell population,"[3]; CCCP (concentration not stated) and ampicillin, six days",~50 cells/mL
same,killing of bacterial tolerant cells,[3]; CCCP alone (100 μM),kill bacterial tolerant cells
same,eradication of tolerant cells,[4]; [21],could eradicate tolerant bacteria cells
same,effect on phenotypic ampicillin tolerance,[4]; [22],sufficient to suppress or even completely abolish phenotypic ampicillin tolerance
same,eradication of tolerant cells,[5]; [21],could eradicate tolerant bacteria cells
same,effect on phenotypic ampicillin tolerance,[5]; [22],sufficient to suppress or even completely abolish phenotypic ampicillin tolerance
same,eradication of tolerant cells,[6]; [21],could eradicate tolerant bacteria cells
same,effect on phenotypic ampicillin tolerance,[6]; [22],sufficient to suppress or even completely abolish phenotypic ampicillin tolerance
same,eradication of tolerant cells,[7]; [21],could eradicate tolerant bacteria cells
same,effect on phenotypic ampicillin tolerance,[7]; [22],sufficient to suppress or even completely abolish phenotypic ampicillin tolerance
same,MIC,[8],> 160 µM
same,cells exhibiting high BOCILLIN intensity (>10^3 RFU),[1]; CCCP (1 μM) treatment,97.86%
same,Nile Red fluorescence intensity,[9],~10000 RFU
same,toxicity or safety in human,[10],toxic to human
N=C(N)NCCC[C@H](NC(=O)[C@@H](N)Cc1ccccc1)C(=O)Nc1ccc2ccccc2c1 [PAβN] (H-Phe-Arg-βNA),effect on bacterial growth,[11],did not exert any negative effect on bacterial growth
CC1(C)S[C@@H]2[C@H](NC(=O)[C@H](N)c3ccccc3)C(=O)N2[C@H]1C(=O)O [ampicillin],size of the antibiotic tolerant sub-population,"[3]; wild type, 24 hrs starvation, then ampicillin 100 μg/mL (~10×MIC) for 6 days",4×10^6 cells/mL and ~2.5×10^7 cells/mL
same,size of the antibiotic tolerant sub-population,"[12]; 24 hrs starvation, then ampicillin 100 μg/mL for 6 days",~3×10^5 cells/mL
same,tolerant sub-population relative to that of wild type,[12]; after 6 days of ampicillin treatment,10%
same,population size,[13],~3.5×10^5 cell/mL
same,reduction of the tolerant population,[14],~10^4 fold
same,size of the tolerant population,[14],~200 cells/mL
same,size of the tolerant population,[15],~5×10^4 cells/mL
same,cell morphology under SEM,[16],slight shrinkage in the pole areas
CC(C)(O/N=C(\C(=O)N[C@@H]1C(=O)N2C(C(=O)[O-])=C(C[n+]3ccccc3)CS[C@H]12)c1csc(N)n1)C(=O)O [ceftazidime],size of the tolerant population,"[7]; ceftazidime alone (100 μg/ml), 96 hrs (FIG. 16F)",~1.4×10^7 CFU/mL
same,infected mice rescued,"[17]; ceftazidime alone 20 mg/kg, 1.5×10^6 CFU",10%
same,protection of the test animals from death,"[17]; ceftazidime alone 20 mg/kg, inoculation of 7.6×10^5 CFU",could protect the test animals from being killed
same,rate of eradication of PY1 tolerant sub-population compared with the econazole and ceftazidime combination,"[17]; ceftazidime only 20 mg/kg, lower inoculum (FIG. 19F), P=0.0004",significantly slower
C=CCOC(Cn1ccnc1)c1ccc(Cl)cc1Cl (stereo not drawn) [enilconazole],effect of co-administration with colistin,[18],bactericidal synergistic effect
N#C/C(=C1/SC[C@@H](c2ccc(Cl)cc2Cl)S1)n1ccnc1 [lulionazole],effect of co-administration with colistin,[18],bactericidal synergistic effect
Clc1ccc(COC(Cn2ccnc2)c2ccc(Cl)cc2Cl)c(Cl)c1 (stereo not drawn) [miconazole],effect of co-administration with colistin,[18],bactericidal synergistic effect
Clc1ccc(C(Cn2ccnc2)OCc2csc3c(Cl)cccc23)c(Cl)c1 (stereo not drawn) [sertaconazole],effect of co-administration with colistin,[18],bactericidal synergistic effect
Clc1ccc(C(Cn2ccnc2)OCc2ccsc2Cl)c(Cl)c1 (stereo not drawn) [tioonazole],effect of co-administration with colistin,[18],bactericidal synergistic effect
CC(C)[C@@H]1NC(=O)[C@H](C)OC(=O)[C@@H](C(C)C)NC(=O)[C@@H](C(C)C)OC(=O)[C@H](C(C)C)NC(=O)[C@H](C)OC(=O)[C@@H](C(C)C)NC(=O)[C@@H](C(C)C)OC(=O)[C@H](C(C)C)NC(=O)[C@H](C)OC(=O)[C@@H](C(C)C)NC(=O)[C@@H](C(C)C)OC1=O [valinomycin],effect on membrane potential (DiSC3(5) fluorescence),[19],caused dissipation of membrane potential
colistin,effect on membrane permeability (SYTOX Green),[20],cause membrane damage and an eventual increase in membrane permeability
